This note sets out measurements from patent US8466169B2, “SF5 derivatives as PAR1 inhibitors, production thereof, and use as medicaments” (Sanofi, priority 2008, dated 2013).

In assay [1] the target is T1, PAR1 (Homo sapiens, UniProt P25116).
T1 sequence (P25116 22-425): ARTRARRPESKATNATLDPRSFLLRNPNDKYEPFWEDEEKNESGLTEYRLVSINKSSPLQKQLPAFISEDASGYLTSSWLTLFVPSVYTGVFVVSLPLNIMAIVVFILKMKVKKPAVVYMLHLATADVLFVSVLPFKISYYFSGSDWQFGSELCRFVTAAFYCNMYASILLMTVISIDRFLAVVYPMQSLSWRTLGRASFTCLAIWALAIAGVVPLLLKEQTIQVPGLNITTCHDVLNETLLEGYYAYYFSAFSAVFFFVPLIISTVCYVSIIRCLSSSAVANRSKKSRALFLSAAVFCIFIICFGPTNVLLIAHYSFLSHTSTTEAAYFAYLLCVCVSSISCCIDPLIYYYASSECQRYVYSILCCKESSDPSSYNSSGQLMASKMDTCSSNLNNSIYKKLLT
Kind of assay: PAR1 binding test (radioligand displacement, membrane preparation). On the set-up: expressed in transfected cells; host or cells: High Five insect cells (transient expression), membrane preparation. The note with it: human PAR1 receptor expressed in High Five insect cells, membrane 1 mg/ml, radioligand 20 nM, 60 minutes; read-out: Inhibition of binding IC50. The method, then: The synthesized substances were examined in a PAR1 binding test. This tested whether the substances can inhibit the binding of a radioactively labeled PAR1 agonist known from the literature at the PAR1 receptor (Ho-Sam Ahn, Mol Pharm, 51:350-356, 1997).
The human PAR1 receptor was expressed transiently in High Five insect cells. From these cells, after 48 hours, a membrane preparation was produced by standard methods, aliquoted into 10 mM Tris-HCl; 0.3 mM EDTA; 1 mM EGTA; 250 mM sucrose pH 7.5, and stored at −80° C.
The substances were preincubated with the membrane at RT for 15 minutes, then the radioligand (ALA-(para-F-Phe)-Arg-ChA-homoArg-(3,4-^3H-Tyr)-NH2; approx. 40 Ci/mMol) was added. The end concentration of the radioligand in the test buffer (50 mM Tris-HCl; 10 mM MgCl2; 1 mM EGTA; 0.1% BSA; 2% DMSO) was 20 nM, that of the membrane 1 mg/ml. After an incubation time of 60 minutes, 25 μl of the mixture were transferred to a 96-well MultiScreenHTS FB microtiter filtration plate (from Millipore), which had been pretreated beforehand with a 0.75% aqueous polyethyleneimine solution for 5 hours at RT. Thereafter, with vacuum extraction, each well was washed four times with 300 μl of buffer (50 mM Tris-HCl; 10 mM MgCl2; 1 mM EGTA). The plate was then dried overnight, 100 μl of scintillator per well were added, and the plate was analyzed after 6 hours in a Wallac MicroBeta (from PerkinElmer) liquid scintillation counter. The nonspecific binding was determined in the presence of 100 μM SCH79797 (PAR-1 antagonist; from Tocris, Cat. No. 1592) and subtracted from all measurements. The 100% value used was a control without inhibitor. The % inhibition values of a substance dilution series were used to calculate the IC50 with the aid of nonlinear regression analysis according to the 4-parameter equation.
(Displacement assays read how much labelled ligand stays bound in the presence of the test substance.)

Assay [2] concerns the target T1, PAR1. Kind of assay: Inhibition of PAR1-mediated platelet aggregation induced by TRAP. Format: cell-based. More on the design: endogenous in cells; host or cells: washed human blood platelets from volunteer donors. The note with it: washed platelets from healthy volunteer donors, TRAP (thrombin receptor-activating peptide) as agonist, 96-well format, AUC at 650 nm. The method, then:
Inhibition of PAR1-Mediated Platelet Aggregation
The biological testing of the substances took place in platelet aggregation induced by TRAP (thrombin receptor-activating peptide) in 96-well format. For this purpose, blood was taken from healthy volunteer donors in 20 ml syringes containing 2 ml of 3.13% sodium citrate solution. After centrifugation at 150×g for 20 minutes, the platelet-rich plasma (PRP) was separated off and admixed with 1 μl of PGE1 solution (500 μg/ml in ethanol)/ml of PRP. Incubation at RT for 5 minutes was followed by centrifugation at 120×g for 15 minutes to remove the leukocytes. The leukocyte-free PRP was transferred in 5 ml portions into 15 ml PP tubes and centrifuged at 360×g for 15 minutes in order to pellet the platelets. The plasma was then decanted off and the platelet sediment from 5 ml of PRP was resuspended in 1 ml of Tyrode's (120 mM NaCl, 2.6 mM KCl, 12 mM NaHCO3, 0.39 mM NaH2PO4×H2O, 10 mM HEPES, 0.35% BSA, 5.5 mM glucose, pH 7.4) and adjusted with Tyrode's to a platelet count of 3×10^5/microliter (μl). 13 ml of this cell suspension were then mixed with 866 μl of 10 mM CaCl2 solution, and 120 μl thereof were pipetted into each well of a 96-well plate containing 15 μl of the substance to be tested. After incubation at RT in the dark for 30 minutes, 15 μl of a TRAP solution (70-100 μM) were added as agonist, and kinetics were recorded at 650 nm in a SpectraMax 340 at 37° C. for 20 minutes while shaking. The areas under the curves of negative control (Tyrode's/DMSO) and positive control (15 μl of agonist/DMSO) were calculated and the difference was fixed as the 100% value. The substances to be tested were pipetted as serial dilutions in duplicate determination, the AUC was likewise determined for each substance concentration, and the % inhibition of the AUC compared with the control was calculated. On the basis of the % inhibition, the IC50 was calculated by nonlinear regression analysis according to the 4-parameter equation.

As a reminder, the IC50 is the concentration at which inhibition is half-maximal. `CCOc1cc2c(c(F)c1OCC)C(=N)N(CC(=O)c1cc(Br)c(S(F)(F)(F)(F)F)cc1N)C2` [Example 20, 1-[2-Amino-5-bromo-4-(pentafluorosulfanyl)phenyl]-2-(5,6-diethoxy-7-fluoro-1-imino-1,3-dihydroisoindol-2-yl)ethanone]: at PAR1 [1], the IC50 was 128 nM. Consider `CCOc1cc2c(cc1C(=O)NC)C(=N)N(CC(=O)c1cc(NC(C)=O)cc(S(F)(F)(F)(F)F)c1)C2` [Example 8, N-Methyl-2-[2-(3-acetylamino-5-pentafluorosulfanylphenyl)-2-oxoethyl]-6-ethoxy-3-imino-2,3-dihydro-1H-isoindole-5-carboxamide], for which the IC50 on PAR1 [2] was determined as 17 nM. On PAR1 [2], `CCOc1cc2c(cc1C(=O)NC)C(=N)N(CC(=O)c1cc(N(S(C)(=O)=O)S(C)(=O)=O)cc(S(F)(F)(F)(F)F)c1)C2` [Example 10, N-Methyl-6-ethoxy-3-imino-2-{2-[3-dimethanesulfonylamino-5-(pentafluorosulfanyl)phenyl]-2-oxoethyl}-2,3-dihydro-1H-isoindole-5-carboxamide] gave an IC50 of 718 nM.

As to `CCOc1cc2c(cc1C(=O)NC)C(=N)N(CC(=O)c1cc(NC(=O)C(F)(F)F)cc(S(F)(F)(F)(F)F)c1)C2` [Example 4, N-Methyl-6-ethoxy-3-imino-2-{2-[3-pentafluorosulfanyl-5-(2,2,2-trifluoroacetylamino)phenyl]-2-oxoethyl}-2,3-dihydro-1H-isoindole-5-carboxamide], the IC50 at PAR1 [1] was 4800 nM. Molecule `CCOc1cc2c(c(F)c1OCC)C(=N)N(CC(=O)c1cc(N)c(S(F)(F)(F)(F)F)cc1C)C2` [Example 16, 1-[5-Amino-2-methyl-4-(pentafluorosulfanyl)phenyl]-2-(5,6-diethoxy-7-fluoro-1-imino-1,3-dihydroisoindol-2-yl)ethanone] returned an IC50 at PAR1 [2] of 10600 nM.

On to `CCOc1cc2c(c(F)c1OCC)C(=N)N(CC(=O)c1cc(N3CCOCC3)cc(S(F)(F)(F)(F)F)c1)C2` [Example 30, 2-(5,6-Diethoxy-7-fluoro-1-imino-1,3-dihydroisoindol-2-yl)-1-[3-morpholin-4-yl-5-(pentafluorosulfanyl)phenyl]ethanone], for which the IC50 on PAR1 [1] amounted to 225 nM. As to `CCOc1cc2c(c(F)c1OCC)C(=N)N(CC(=O)c1ccc(S(F)(F)(F)(F)F)cc1N)C2` [Example 19, 1-[2-Amino-4-(pentafluorosulfanyl)phenyl]-2-(5,6-diethoxy-7-fluoro-1-imino-1,3-dihydroisoindol-2-yl)ethanone], the IC50 on PAR1 [2] was determined as 98 nM. In the case of `CCOc1cc2c(c(F)c1OCC)C(=N)N(CC(=O)c1cc(NC(=O)CC(C)(C)C)cc(S(F)(F)(F)(F)F)c1)C2` [Example 17, N-{3-[2-(5,6-Diethoxy-7-fluoro-1-imino-1,3-dihydroisoindol-2-yl)acetyl]-5-pentafluorosulfanylphenyl}-3,3-dimethylbutyramide], at PAR1 [1], the IC50 was 360 nM. Turning to `CCOc1cc2c(c(F)c1OCC)C(=N)N(CC(=O)c1cc(Cl)cc(S(F)(F)(F)(F)F)c1)C2` [Example 27, 1-[3-Chloro-5-(pentafluorosulfanyl)phenyl]-2-(5,6-diethoxy-7-fluoro-1-imino-1,3-dihydroisoindol-2-yl)ethanone], the half-maximal inhibitory concentration (IC50) on PAR1 [1] amounted to 1700 nM. Consider `CCOc1cc2c(c(F)c1OCC)C(=N)N(CC(=O)c1cc(OC)cc(S(F)(F)(F)(F)F)c1)C2` [Example 21, 2-(5,6-Diethoxy-7-fluoro-1-imino-1,3-dihydroisoindol-2-yl)-1-[3-methoxy-5-(pentafluorosulfanyl)phenyl]ethanone], for which the half-maximal inhibitory concentration (IC50) on PAR1 [2] came to 28 nM.

`CCOc1cc2c(c(F)c1OCC)C(=N)N(CC(=O)c1cc(N(C)C(C)=O)cc(S(F)(F)(F)(F)F)c1)C2` [Example 12, N-[3-[2-(5,6-diethoxy-7-fluoro-1-imino-1,3-dihydroisoindol-2-yl)acetyl]-5-(pentafluorosulfanyl)phenyl]-N-methylacetamide] came in with an IC50 at PAR1 [2] of 387 nM.

For `CCOc1cc2c(c(F)c1OCC)C(=N)N(CC(=O)c1cc(NC(C)=O)cc(S(F)(F)(F)(F)F)c1)C2` [Example 14], on PAR1 [1], the IC50 was 227 nM. Regarding `CCOc1cc2c(c(F)c1OCC)C(=N)N(CC(=O)c1cc(N3C(=O)CCC3=O)cc(S(F)(F)(F)(F)F)c1)C2` [Example 18, 1-{3-[2-(5,6-Diethoxy-7-fluoro-1-imino-1,3-dihydroisoindol-2-yl)acetyl]-5-pentafluorosulfanylphenyl}pyrrolidine-2,5-dione], the half-inhibitory concentration (IC50) on PAR1 [2] came to 175 nM. Regarding `CCOc1cc(C(=O)CN2Cc3cc(OCC)c(OCC)c(F)c3C2=N)cc(S(F)(F)(F)(F)F)c1` [Example 24, 2-(5,6-Diethoxy-7-fluoro-1-imino-1,3-dihydroisoindol-2-yl)-1-[3-ethoxy-5-(pentafluorosulfanyl)phenyl]ethanone], the IC50 on PAR1 [1] was 512 nM. As for `CCOc1cc2c(cc1C(=O)NC)C(=N)N(CC(=O)c1cc(N(C)C)cc(S(F)(F)(F)(F)F)c1)C2` [Example 2, N-Methyl-2-[2-(3-dimethylamino-5-pentafluorosulfanylphenyl)-2-oxoethyl]-6-ethoxy-3-imino-2,3-dihydro-1H-isoindole-5-carboxamide], the half-maximal inhibitory concentration (IC50) on PAR1 [2] turned out to be 597 nM. For `CCOc1cc2c(cc1C(=O)NC)C(=N)N(CC(=O)c1cc(NC)cc(S(F)(F)(F)(F)F)c1)C2` [Example 3, N-Methyl-6-ethoxy-3-imino-2-[2-(3-methylamino-5-pentafluorosulfanylphenyl)-2-oxoethyl]-2,3-dihydro-1H-isoindole-5-carboxamide], on PAR1 [2], the IC50 was found to be 2 nM.
